In brackets after ≈: the same amount, converted by molar mass.
Experiments:
C. albicans (ATCC 24433) = experiment: Anticandidal activity, MIC50 by resazurin fluorometric measurement; format: cell-based, Candida albicans; conditions: Candida albicans, ATCC24433, means of triplicate assays
Procedure: (§1) Obtained compounds (2a–2j) were evaluated for anticandidal activity against Candida albicans (C. albicans) (ATCC 24433), Candida krusei (C. krusei) (ATCC 6258), and Candida parapsilopsis (C. parapsilopsis) (ATCC 22019). MIC50 values were determined via fluorometric measurements, using resazurin solution.[13] Voriconazole and fluconazole were used as a standard drug in the anticandidal activity test. […] In general, it is seen that the 2-methoxyethyl substituent increases the anticandidal activity.
(§2) The antimicrobial activity of obtained derivatives (2a–2j) was screened on six bacterial and three fungal strains according to the standard procedure of CLSI[20] as described in the previous study.[21] The antibacterial activities of the obtained compounds were screened against B. subtilis (ATCC 6051), E. coli (ATCC 25922), E. faecalis (ATCC 2942), P. aeruginosa (ATCC 27853), S. aureus (ATCC 29213), and S. epidermidis (ATCC 12228). The obtained compounds were evaluated for anticandidal activity against C. albicans (ATCC 24433), C. krusei (ATCC 6258), and C. parapsilopsis (ATCC 22019). For antibacterial activity, azithromycin was utilized as a reference drug, whereas voriconazole and fluconazole were used for anticandidal activity.

C. krusei (ATCC 6258) = experiment: as above; format: cell-based, Candida krusei; conditions: Pichia kudriavzevii, ATCC6258, means of triplicate assays
Procedure: as §1, §2

[1] = test system: P. aeruginosa (ATCC 27853); experiment: Antibacterial activity, MIC50 by resazurin fluorometric measurement; format: cell-based; conditions: Pseudomonas aeruginosa, ATCC27853; means of triplicate assays
Procedure: (§3) Obtained compounds (2a–2j) were evaluated for antibacterial activity against Escherichia coli (E. coli) (ATCC 25922), Pseudomonas aeruginosa (P. aeruginosa) (ATCC 27853), […] (E. faecalis) (ATCC 2942), Bacillus subtilis (B. subtilis) (ATCC 6051), Staphylococcus aureus (S. aureus) (ATCC 29213), and Staphylococcus epidermidis (S. epidermidis) (ATCC 12228). MIC50 values were determined via fluorometric measurements, using resazurin solution.[13] Azithromycin was used as a standard drug in the antibacterial activity test.
as §2

E. coli (ATCC 25922) = experiment: as above; format: cell-based; conditions: Escherichia coli, ATCC25922; means of triplicate assays
Procedure: as §3, §2

B. subtilis (ATCC 6051) = experiment: as above; format: cell-based; conditions: Bacillus subtilis, ATCC6051; means of triplicate assays
Procedure: as §3, §2

S. aureus (ATCC 29213) = experiment: as above; format: cell-based, Staphylococcus aureus; conditions: Staphylococcus aureus, ATCC29213, means of triplicate assays
Procedure: as §3, §2

[2] = test system: healthy mouse fibroblast cell (NIH3T3); experiment: MTT cytotoxicity test on healthy cells; format: cell-based; conditions: 24-h treatment, means of quartet assays ± SEM
Procedure: (§4) The MTT test was performed using 3 different cell lines for calculated IC50 values of obtained compounds. […] For this purpose, the cytotoxic effects of the compounds against the healthy mouse fibroblast cell (NIH3T3) were investigated.
(§5) The 3-(4,5-dimethylthiazol-2-yl)-2,5-diphenyltetrazolium salt reduction method, or MTT assay, is used to measure the metabolic activity of live cells. […] Doxorubicin is used as a therapeutic drug. MTT assays were carried out as previously explained.[19]

[3] = test system: C. parapsilopsis (ATCC 22019); experiment: Anticandidal activity, MIC50 by resazurin fluorometric measurement; format: cell-based, Candida parapsilopsis; conditions: Candida, ATCC22019; means of triplicate assays
Procedure: as §1, §2

E. faecalis (ATCC 2942) = experiment: Antibacterial activity, MIC50 by resazurin fluorometric measurement; format: cell-based, Enterococcus faecalis; conditions: Enterococcus faecalis, ATCC2942, means of triplicate assays
Procedure: as §3, §2

HepG2 cell line = experiment: MTT cytotoxicity test; format: cell-based; conditions: Homo sapiens, 24-h treatment, means of quartet assays ± SEM
Procedure: as §4, §5

A549 cell line [4] = experiment: MTT cytotoxicity test; format: cell-based; conditions: Homo sapiens, A549, 24 h, MTT, 24-h treatment, means of quartet assays ± SEM
Procedure: as §4, §5

[5] = test system: S. epidermidis (ATCC 12228); experiment: Antibacterial activity, MIC50 by resazurin fluorometric measurement; format: cell-based, Staphylococcus epidermidis; conditions: Staphylococcus epidermidis, ATCC12228, means of triplicate assays; read-out: MIC50 S. epidermis
Procedure: as §3, §2

carcinogenic cell lines [6] = experiment: Flow cytometric analysis of apoptosis and necrosis (Apoptosis, Necrosis and Healthy Cell Quantitation Kit Plus); format: cell-based; conditions: IC50 concentration, 24-h incubation
carcinogenic cell lines [7] = experiment: as above; format: cell-based; conditions: IC50 concentration, 24-h incubation; remark: listed apart in the source
Text: The flow cytometer was used to calculate the percentages of apoptotic and necrotic cells in four different quadrants, which are denoted by the letters “UL, UR, LL, LR” (Upper Left, Upper Right, Lower Left, Lower Right). The four distinct quadrants in the diagram represent the following areas, respectively: Apoptotic or early apoptotic cells, LR: CF488A+/(EthD-III)-; necrotic or late apoptotic cells, […]: CF488A+/(EthD-III)+; intact cells, LL: CF488A/(EthD-III); and dead or necrotic cells, UR: CF488A+/(EthD-III)+. The IC50 concentration of each substance was used in administration.
Death pathway of the carcinogenic cell lines was detected by Apoptosis, Necrosis and Healthy Cell Quantitation Kit Plus (Cat: 30066, Biotium, Hayward, CA, USA)[22] as reported in the manufacturer’s instruction. The IC50 values for doxorubicin and compound 2j were applied. Cells were collected by centrifugation at 1200 rpm for 5 min following a 24-h incubation period. It was washed 2 times with PBS, centrifuged and turned into pellets. One ×10^6 cells/mL of annexin were suspended in V-FITC binding buffer. Ethidium iodide ([…]), Hoestch 1 mL, and annexin V-FITC ([…]) were added to stain cells and using the CytoFLEX Flow Cytometer (Beckman Coulter Life Sciences, USA) and CytExpert for CytoFLEX Acquisition and Analysis Software Version 2.2.0.97 instrument. Fluorescence measurements were made using a flow cytometer in accordance with the instrument procedure.

A549 cell line [8] = experiment: Analysis of mitochondrial membrane potential (MMP) by flow cytometry, JC-1 dye; format: cell-based; conditions: A549, IC50 concentration, 24-h incubation
Procedure: After a 24-h incubation period, mitochondrial membrane potential was measured with JC-1 dye.
The BD Mitoscreen Mitochondrial Membrane Potential Detection JC-1 Kit (available from ref ([23])) was used for the MMP test. First, A549 cells were seeded in 25 mL flasks and incubated for 24 h in a 5% CO2 incubator. […] At the end of this period, cells were collected and centrifuged in accordance with the kit contents. After the upper part was removed, JC-1 dye was added and incubated at 37 °C for 10–15 min. At the end of the period, it was washed 2 times with washing solution and reading was done with the appropriate procedure using the CytoFLEX Flow Cytometer (Beckman Coulter Life Sciences, USA) and CytExpert for CytoFLEX Acquisition and Analysis Software Version 2.2.0.97.

CCN1CCN(c2ccc(C(=O)C=Cc3cccc4ccccc34)cc2)CC1 [2b, 1-(4-(4-Ethylpiperazin-1-yl)phenyl)-3-(naphthalen-1-yl)prop-2-en-1-one]
MIC50 (C. albicans (ATCC 24433)): 15.6 µg/mL (≈ 42.1 µM) | MIC50 (C. krusei (ATCC 6258)): 62.5 µg/mL (≈ 169 µM) | MIC50 [1]: 62.5 µg/mL (≈ 169 µM) | MIC50 (E. coli (ATCC 25922)): > 100 µg/mL | MIC50 (B. subtilis (ATCC 6051)): > 100 µg/mL | MIC50 (S. aureus (ATCC 29213)): 31.3 µg/mL (≈ 84.5 µM) | melting point: 164.6 to 166.1 °C | IC50 [2]: 22.9 ± 0.76 µM | MIC50 [3]: > 100 µg/mL | MIC50 (E. faecalis (ATCC 2942)): 31.3 µg/mL (≈ 84.5 µM) | IC50 (HepG2 cell line): 45.8 ± 8.4 µM | IC50 (A549 cell line [4]): > 100 µM | MIC50 [5]: 31.3 µg/mL (≈ 84.5 µM)

CN1CCN(c2ccc(C(=O)C=Cc3ccc4ccccc4c3)cc2)CC1 [2f, 1-(4-(4-Methylpiperazin-1-yl)phenyl)-3-(naphthalen-2-yl)prop-2-en-1-one]
MIC50 (C. albicans (ATCC 24433)): 62.5 µg/mL (≈ 175 µM) | MIC50 (C. krusei (ATCC 6258)): > 100 µg/mL | MIC50 [1]: > 100 µg/mL | MIC50 (E. coli (ATCC 25922)): > 100 µg/mL | MIC50 (B. subtilis (ATCC 6051)): > 100 µg/mL | MIC50 (S. aureus (ATCC 29213)): 31.3 µg/mL (≈ 87.8 µM) | melting point: 204.5 to 206.2 °C | IC50 [2]: 25.6 ± 0.26 µM | MIC50 [3]: > 100 µg/mL | MIC50 (E. faecalis (ATCC 2942)): 31.3 µg/mL (≈ 87.8 µM) | IC50 (HepG2 cell line): 29.7 ± 0.79 µM | IC50 (A549 cell line [4]): 35.7 ± 0.37 µM | MIC50 [5]: 15.6 µg/mL (≈ 43.8 µM)

C[C@@H](c1ncncc1F)[C@](O)(Cn1cncn1)c1ccc(F)cc1F [SD2, Voriconazole, reference compound]
MIC50 (C. albicans (ATCC 24433)): 3.9 µg/mL (≈ 11.2 µM) | MIC50 (C. krusei (ATCC 6258)): 3.9 µg/mL (≈ 11.2 µM) | MIC50 [3]: 1.95 µg/mL (≈ 5.58 µM)

COc1cccc2c1C(=O)c1c(O)c3c(c(O)c1C2=O)C[C@@](O)(C(=O)CO)C[C@@H]3O[C@H]1C[C@H](N)[C@H](O)[C@H](C)O1 [SD4, Doxorubicin, reference compound]
late apoptosis (Q1-UR) (carcinogenic cell lines [6]): 8.84% | early apoptosis (Q1-LR) (carcinogenic cell lines [7]): 8.55% | intact cells (Q1-LL) (carcinogenic cell lines [7]): 80.85% | necrosis (Q1-UL) (carcinogenic cell lines [7]): 1.76% | rate of apoptosis (early + late apoptosis) (carcinogenic cell lines [7]): 17.4% | IC50 [2]: > 100 µM | mitochondrial membrane potential (P3) (A549 cell line [8]): 30.270% | IC50 (HepG2 cell line): 9.47 ± 1.49 µM | IC50 (A549 cell line [4]): 2.97 ± 0.16 µM

CC[C@H]1OC(=O)[C@H](C)[C@@H](O[C@H]2C[C@@](C)(OC)[C@@H](O)[C@H](C)O2)[C@H](C)[C@@H](O[C@@H]2O[C@H](C)C[C@H](N(C)C)[C@H]2O)[C@](C)(O)C[C@@H](C)CN(C)[C@H](C)[C@@H](O)[C@]1(C)O [SD1, Azithromycin, reference compound]
MIC50 [1]: < 0.97 µg/mL | MIC50 (E. coli (ATCC 25922)): < 0.97 µg/mL | MIC50 (B. subtilis (ATCC 6051)): < 0.97 µg/mL | MIC50 (S. aureus (ATCC 29213)): < 0.97 µg/mL | MIC50 (E. faecalis (ATCC 2942)): < 0.97 µg/mL | MIC50 [5]: < 0.97 µg/mL

CC(C)N1CCN(c2ccc(C(=O)C=Cc3cccc4ccccc34)cc2)CC1 [2c, 1-(4-(4-Isopropylpiperazin-1-yl)phenyl)-3-(naphthalen-1-yl)prop-2-en-1-one]
MIC50 (C. albicans (ATCC 24433)): 15.6 µg/mL (≈ 40.6 µM) | MIC50 (C. krusei (ATCC 6258)): 62.5 µg/mL (≈ 163 µM) | MIC50 [1]: 62.5 µg/mL (≈ 163 µM) | MIC50 (E. coli (ATCC 25922)): > 100 µg/mL | MIC50 (B. subtilis (ATCC 6051)): > 100 µg/mL | MIC50 (S. aureus (ATCC 29213)): 62.5 µg/mL (≈ 163 µM) | melting point: 146.8 to 147.5 °C | IC50 [2]: > 100 µM | MIC50 [3]: > 100 µg/mL | MIC50 (E. faecalis (ATCC 2942)): 31.3 µg/mL (≈ 81.4 µM) | IC50 (HepG2 cell line): 96.1 ± 5.46 µM | IC50 (A549 cell line [4]): 34.3 ± 5.56 µM | MIC50 [5]: 31.3 µg/mL (≈ 81.4 µM)

OC(Cn1cncn1)(Cn1cncn1)c1ccc(F)cc1F [SD3, Fluconazole, reference compound]
MIC50 (C. albicans (ATCC 24433)): 7.81 µg/mL (≈ 25.5 µM) | MIC50 (C. krusei (ATCC 6258)): 7.81 µg/mL (≈ 25.5 µM) | MIC50 [3]: 3.9 µg/mL (≈ 12.7 µM)
